The subject of one test is eNOS and Akt. The test is described as follows: eNOS and Akt phosphorylation in PAECs (western blotting). In kind it is cell-based. As to the method:
FIGS. 16a, 16b and 16c. (16a-16b) PAECs were treated with 3 μM ψPLB-SE for 1 hour, and protein expression was quantitatively analyzed through western blotting using antibodies against Phospho-eNOS (ser1177), total eNOS, phospho-Akt (Ser473, Thr308), total Akt, and GAPDH. (16c) The pulmonary tissue lysate was subjected to immunoprecipitation using PP1 antibody to investigate the interactions of PP1 with eNOS and Akt depending on the presence or absence of the treatment with ψPLB-SE using respective antibodies therefor.
FIGS. 17a, 17b and 17c. (17a) PAECs were treated with 50 μM LY294002, a PI3K inhibitor, for 24 hours, and then treated with 3 μM ψPLB-SE for 1 hour. Protein expression was quantitatively analyzed through western blotting using antibodies against Phospho-eNOS (ser1177), total eNOS, phospho-Akt (Ser473, Thr308), total Akt, and GAPDH. (17b) PAECs were treated with 10 μM inhibitor IV, an Akt inhibitor, for 2 hours, and then treated with 3 μM ψPLB-SE for 1 hour. Protein expression was quantitatively analyzed through western blotting using antibodies against total eNOS and GAPDH. (17c) PAECs were treated with 100 nM OA, a PP1 inhibitor, for 24 hours, and then treated with 3 μM ψPLB-SE for 1 hour. Protein expression was quantitatively analyzed through western blotting using antibodies against Phospho-eNOS (ser1177), total eNOS, phospho-Akt (Ser473, Thr308), total Akt, and GAPDH.
ψPLB-SE (RAE16TIEMPQ; SEQ ID NO: 2) was derived from the PLB protein sequence surrounding the Ser16 phosphorylation site. To facilitate uptake into cells, the peptide was conjugated to the cell penetrating peptide dNP2 ([…]; SEQ ID NO: 21) or TAT (YGRKKRRQRRR; SEQ ID NO: 22). The peptides used in the present invention were PLB-SE (RAETIEMPQ; SEQ ID NO: 2) and control peptide (RASTIEMPQ; SEQ ID NO: 23). PLB-SE and cell penetrating peptide were connected by a linker peptide (GGG; SEQ ID NO: 24) The peptides (purity of 95% or higher, AnyGen, Gwangju, Korea) was resuspended in double-distilled water or physiological saline at a stock concentration of 3 mM (cells), 2.5 mg/ml (rats), or 500 μg/ml (mice). The rats were treated with 1 mg/kg peptides and mice were treated with 2 mg/kg peptides. The rat aortic smooth muscle cells (RASMCs), human coronary smooth muscle cells (HCSMCs), pulmonary arterial endothelial cells (PAECs), and pulmonary arterial smooth muscle cells (PASMCs) were treated with the peptides at a final concentration of 3 μM for 1 hour. The PI3K inhibitor LY294002 (Millipore, USA), the Akt inhibitor Inhibitor IV (Calbiochem, USA), and the PP1 inhibitor okadaic acid (Sigma Aldrich, USA), used in the experiments using pulmonary arterial endothelial cells (PAECs), were purchased. For the monocrotaline aqueous solution, the monocrotaline powder (Sigma Aldrich, USA) was dissolved in a small amount of a 1 M hydrochloric acid solution (HCL), diluted with sterilized distilled water, and adjusted to pH 7.35 by addition of sodium hydroxide (NaOH). The animals were bred and observed in the same conditions as in the control group during the experiment periods. In addition, the calcium ionophore A23187 and the calpain I and II inhibitors MDL28170 and […] were purchased from Sigma-Aldrich (St. Louis, Mo., USA).
Vascular smooth muscle cells (VSMCs) were homogenized in a minimal volume of 50 mM Tris-HCl, pH 7.4, supplemented with a broad-spectrum protease inhibitor cocktail (Calbiochem). The proteins were separated by SDS-PAGE and then transferred to polyvinylidene fluoride membranes (Schleicher & Schuell). After blocking with 5% (w/v) non-fat milk for 1 hour and washing with TBST, the membranes were incubated with antibodies against SERCA2a, SERCA2b (21st century biochemical), PCNA (abcam), GAPDH (Sigma-Aldrich), phospho-eNOS, eNOS, phospho-eIF2α, eIF2α (cell signaling), Vimentin, α-SMA, BMPR2 (Santa cruz), phospho-Akt, Akt (cell signaling), phospho-phospholamban (Merck), and Phospholamban (cell signaling). […]
(In western blotting, separated proteins are transferred to a membrane and probed.)

The test system of another test is SERCA2a. The test is described as follows: SERCA2a level and stability in RASMCs (immunostaining, western blotting). In kind it is cell-based, rat. Conditions: synthetic conditions, 3 μM peptide. As to the method:
Rat aortic smooth muscle cells (RASMCs) were fixed in 4% (w/v) paraformaldehyde at room temperature for 10 min, washed with PBS, and then transmitted with 0.1% (v/v) Triton X-100 in PBS for 40 min. After washing and blocking with 3% (w/v) BSA in PBS, the cells were incubated overnight at room temperature with antibodies against SERCA2a (1:250), SERCA2b (1:250), and PCNA (1:50). On the following day, the cells were washed with PBS and incubated with anti-rabbit and anti-mouse IgG conjugated to Alexa Fluor 488 and 594, respectively, for 1 hour at room temperature. The cells were treated with FluoroGuard antifade reagent (Bio-Rad, Hercules, Calif., USA), and the coverslips were examined under a fluorescent microscope.
Vascular smooth muscle cells (VSMCs) were homogenized in a minimal volume of 50 mM Tris-HCl, pH 7.4, supplemented with a broad-spectrum protease inhibitor cocktail (Calbiochem). The proteins were separated by SDS-PAGE and then transferred to polyvinylidene fluoride membranes (Schleicher & Schuell). After blocking with 5% (w/v) non-fat milk for 1 hour and washing with TBST, the membranes were incubated with antibodies against SERCA2a, SERCA2b (21st century biochemical), PCNA (abcam), GAPDH (Sigma-Aldrich), phospho-eNOS, eNOS, phospho-eIF2α, eIF2α (cell signaling), Vimentin, α-SMA, BMPR2 (Santa cruz), phospho-Akt, Akt (cell signaling), phospho-phospholamban (Merck), and Phospholamban (cell signaling). The membranes were then incubated with horseradish peroxidase-conjugated secondary antibodies (Jackson ImmunoResearch, West Grove, Pa., USA) and developed using a chemiluminescent substrate (Dogen). The blots were scanned and quantified using LAS software.
RASMCs were cultured in DMEM supplemented with 0.1% (v/v) FBS (Contractile) or in DMEM supplemented with 10% (v/v) FBS (Synthetic) in the presence of 3 μM control or ψPLB-SE peptide. Cycloheximide (Sigma) was added to media to a final concentration of 5 μg/ml. Cells were harvested after 0, 3, and 5 days of incubation and their protein extracts were subjected to western blotting.

No end group written: not given here.

In the case of “RAETIEMPQ (not fully specified) [ψPLB-SE, 9-mer PP1 decoy peptide mimicking phosphorylated PLB; conjugated via GGG linker to cell penetrating peptide dNP2 or TAT]”, in the test with eNOS and Akt (100 nM okadaic acid followed by ψPLB-SE), the “phosphorylation of Akt and eNOS” value is on record as “further increased”. In the test on eNOS and Akt (3 μM for 1 hour), the “phosphorylation of Akt serine 473 and threonine 308” value is on record as “increased”; the “phosphorylation of eNOS serine 1177” value is “increased”; the “phosphorylation of eNOS threonine 495” value was “reduced”. In addition, the eNOS phosphorylation entry with eNOS and Akt (Inhibitor IV 10 μM then ψPLB-SE) was “did not increase”. Besides, the “phosphorylation of eNOS and Akt” value in the test with eNOS and Akt (LY294002 50 μM followed by ψPLB-SE) is listed as “increased”. Moreover, in the test with SERCA2a, the “SERCA2a reduction (immunostaining)” value is “completely inhibited” and the “reduction of SERCA2a (western blotting)” value is on record as “inhibited”. Further, the “stability of SERCA2a” value in the test on SERCA2a (cycloheximide 5 μg/ml) is recorded as “restored nearly to the level observed under contractile conditions”.

The values above are taken from US11426441B2, “Composition comprising protein phosphatase 1 inhibitory peptide for treating vascular diseases” (BethphaGen Inc., priority 2016, dated 2022).
